Reference: patent publication US20260055080A1, “NOVEL SUBSTITUTED QUINOLINE AND TETRAHYDRONAPHTHALENE CARBOXYLIC ACID DERIVATIVES AND THERAPEUTIC USES THEREOF” (SANOFI, priority 2022, published 2026)

Molecular target: T1, ERα (Homo sapiens, UniProt P03372)
T1 construct: measured to determine the levels of ERα and DNA respectively; host or cells: MCF7
T1 sequence (P03372 1-595): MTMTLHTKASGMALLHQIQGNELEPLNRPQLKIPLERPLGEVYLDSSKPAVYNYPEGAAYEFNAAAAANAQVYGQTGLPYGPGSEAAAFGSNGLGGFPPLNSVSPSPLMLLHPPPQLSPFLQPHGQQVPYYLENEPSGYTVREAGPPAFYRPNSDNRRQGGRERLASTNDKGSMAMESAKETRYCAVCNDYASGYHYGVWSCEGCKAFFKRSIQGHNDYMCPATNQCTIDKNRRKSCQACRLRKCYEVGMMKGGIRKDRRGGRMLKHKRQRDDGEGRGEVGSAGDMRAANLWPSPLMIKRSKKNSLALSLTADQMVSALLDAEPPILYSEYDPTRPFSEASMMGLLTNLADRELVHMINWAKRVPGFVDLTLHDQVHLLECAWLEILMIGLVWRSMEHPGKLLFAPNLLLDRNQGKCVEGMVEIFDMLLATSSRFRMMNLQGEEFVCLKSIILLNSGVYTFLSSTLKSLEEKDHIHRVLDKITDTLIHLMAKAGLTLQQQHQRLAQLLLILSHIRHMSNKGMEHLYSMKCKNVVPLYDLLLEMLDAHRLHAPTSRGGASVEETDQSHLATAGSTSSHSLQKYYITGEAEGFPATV
Experiment: Estrogen receptor degradation activity: breast cancer cell ERα in cell western assay
Type: cell-based
Conditions: MCF7 cells; for % Degradation At 0.3 μM: 4 hours, relative to fulvestrant 0.1 μM positive control; for DC50: 4 hours post compound addition, concentration which degrades 50% of the estrogen receptor, read-out: Degradation IC50
Procedure: Test: Estrogen Receptor Degradation Activity
Said test involves measuring the in vitro degradation activity of the compounds of the Table 1.
The measurements of the degradation activities were made using a breast cancer cell ERα in cell western assay as described hereunder.
MCF7 cells (ATCC) were seeded in 384 wells microplate (collagen coated) at a concentration of 10000 cells/30 μL per well in red phenol free MEM alpha medium (invitrogen) containing 5% charcoal dextran striped FBS. The following day, 9 points serial 1:5 dilution of each compound was added to the cells in 2.5 μL at final concentrations ranging from 0.3-0.0000018 μM (in Table 2), or 0.1 μM for fulvestrant (using as positive control). At 4 hours post compound addition the cells were fixed by adding 25 μL of formalin (final concentration 5% formalin containing 0.1% triton) for 10 minutes at room temperature and then washed twice with PBS. Then, 50 μL of LI-COR blocking buffer containing 0.1% Triton was added to plate for 30 minutes at room temperature. LI-COR blocking buffer was removed and cells were incubated overnight at cold room with 50 μL anti-ER rabbit monoclonal antibody (Thermo scientific MA1-39540) diluted at 1:1000 in LI-COR blocking buffer containing 0.1% tween-20. Wells which were treated with blocking buffer but no antibody were used as background control. Wells were washed twice with PBS (0.1% tween-20) and incubated at 37° C. for 60 minutes in LI-COR (0.1% tween-20) containing goat anti-rabbit antibody Alexa 488 (1:1000) and Syto-64 a DNA dye (2 μM final concentration). Cells were then washed 3 times in PBS and scanned in ACUMEN explorer (TTP-Labtech). Integrated intensities in the green fluorescence and red fluorescence were measured to determine the levels of ERα and DNA respectively.
The degradation activity with respect to estrogen receptors in this test is given by the concentration which degrades 50% of the estrogen receptor (or IC50) in nM.
The % of ERα levels decrease were determined as follows: % inhibition=100*(1-(sample-fulvestrant: DMSO-fulvestrant)).

O=C(O)c1ccc2c(C(=O)c3ccc(OC4CN(CCCF)C4)cc3)c(-c3ccc(C(F)(F)F)cc3F)cnc2c1 [Compound 1]
% Degradation At 0.3 μM: 51% | DC50: 136 nM

O=C(O)c1ccc2c(C(=O)c3ccc(OCCN4CC(CF)C4)cc3)c(-c3ccc(C(F)(F)F)cc3F)cnc2c1 [Compound 2, 3-(2-fluoro-4-(trifluoromethyl)phenyl)-4-(4-(2-(3-(fluoromethyl)azetidin-1-yl)ethoxy)benzoyl)quinoline-7-carboxylic acid]
% Degradation At 0.3 μM: 62% | DC50: 196 nM

CCNCCc1ccc(CN(CC)c2cc(OC)ccc2[C@@H]2CCc3cc(C(=O)O)ccc3C2)cc1 [Compound 3, (R)-6-(2-(ethyl(4-(2-(ethylamino)ethyl)benzyl)amino)-4-methoxyphenyl)-5,6,7,8-tetrahydronaphthalene-2-carboxylic acid]
% Degradation At 0.3 μM: 49% | DC50: 252 nM
